≈ marks a conversion by molar mass, not a printed value.
Tests used:
Format in all cases: functional
[1] = system: Candida albicans; experiment: Anti-fungal activity against Candida albicans assessed as inhibition of fungal growth; conditions: Candida albicans; read-out: MIC
[2] = system: Staphylococcus aureus; experiment: Anti-bacterial activity against Staphylococcus aureus ATCC 6538 assessed as inhibition of bacterial growth
[3] = system: Candida parapsilosis; experiment: Anti-fungal activity against Candida parapsilosis assessed as inhibition of fungal growth; conditions: Lodderomyces parapsilosis; read-out: MIC
[4] = system: Pseudomonas aeruginosa; experiment: Anti-bacterial activity against Pseudomonas aeruginosa ST235 assessed as inhibition of bacterial growth; conditions: Pseudomonas aeruginosa, ST235; read-out: MIC
[5] = system: Staphylococcus aureus; experiment: Anti-bacterial activity against methicillin-resistant Staphylococcus aureus ATCC 43300 assessed as inhibition of bacterial growth; conditions: Staphylococcus aureus, ATCC 43300; read-out: MIC
[6] = system: Enterococcus faecalis; experiment: Anti-bacterial activity against Enterococcus faecalis V583 assessed as inhibition of bacterial growth
[7] = system: Staphylococcus aureus; experiment: Anti-bacterial activity against Staphylococcus aureus ATCC 25923 assessed as inhibition of bacterial growth; conditions: Staphylococcus aureus, ATCC 25923; read-out: MIC
[8] = system: Candida albicans; experiment: Anti-fungal activity against Candida albicans 90023 assessed as inhibition of fungal growth
[9] = system: Staphylococcus aureus; experiment: Anti-bacterial activity against methicillin-resistant Staphylococcus aureus N315 assessed as inhibition of bacterial growth; conditions: Staphylococcus aureus, N315; read-out: MIC
[10] = system: Staphylococcus aureus; experiment: Anti-bacterial activity against Staphylococcus aureus CMCC (B) 26003 assessed as inhibition of bacterial growth
[11] = system: Pseudomonas aeruginosa; experiment: Anti-bacterial activity against Pseudomonas aeruginosa ATCC 9027 assessed as inhibition of bacterial growth
[12] = system: Pseudomonas aeruginosa; experiment: Anti-bacterial activity against Pseudomonas aeruginosa ATCC 27853 assessed as inhibition of bacterial growth; conditions: Pseudomonas aeruginosa, ATCC 27853; read-out: MIC
[13] = system: Pseudomonas aeruginosa; experiment: Anti-bacterial activity against Pseudomonas aeruginosa CMCC (B) 10104 assessed as inhibition of bacterial growth; conditions: Pseudomonas aeruginosa, CMCC (B) 10104; read-out: MIC
[14] = system: Candida tropicalis; experiment: Anti-fungal activity against Candida tropicalis assessed as inhibition of fungal growth; conditions: Candida tropicalis; read-out: MIC
[15] = system: Staphylococcus aureus; experiment: Anti-bacterial activity against Staphylococcus aureus ATCC 29213 assessed as inhibition of bacterial growth; conditions: Staphylococcus aureus, ATCC 29213; read-out: MIC
[16] = system: Escherichia coli; experiment: Anti-bacterial activity against Escherichia coli ATCC 25922 assessed as inhibition of bacterial growth
[17] = system: Klebsiella pneumoniae; experiment: Anti-bacterial activity against Klebsiella pneumoniae KPN325 assessed as inhibition of bacterial growth; conditions: Klebsiella pneumoniae, KPN325; read-out: MIC
[18] = system: Escherichia coli; experiment: Anti-bacterial activity against Escherichia coli JM109 assessed as inhibition of bacterial growth
[19] = system: Pseudomonas aeruginosa; experiment: Anti-bacterial activity against Pseudomonas aeruginosa ATCC 15442 assessed as inhibition of bacterial growth; conditions: Pseudomonas aeruginosa, ATCC 15442; read-out: MIC
[20] = system: Acinetobacter baumannii; experiment: Anti-bacterial activity against Acinetobacter baumannii R674 assessed as inhibition of bacterial growth
[21] = system: Staphylococcus aureus; experiment: Anti-bacterial activity against Staphylococcus aureus ATCC 12600 assessed as inhibition of bacterial growth; conditions: Staphylococcus aureus, ATCC 12600; read-out: MIC
[22] = system: Staphylococcus aureus; experiment: Anti-bacterial activity against Staphylococcus aureus CMCC (B) 26001 assessed as inhibition of bacterial growth
[23] = system: Staphylococcus aureus; experiment: Anti-bacterial activity against Staphylococcus aureus ATCC 1708 assessed as inhibition of bacterial growth; conditions: Staphylococcus aureus, ATCC 1708; read-out: MIC

SMILES | MIC [1] [µM] | MIC [2] [µM] | MIC [3] [µM] | MIC [4] [µM] | MIC [5] [µM] | MIC [6] [µM] | MIC [7] [µM] | MIC [8] [µM] | MIC [9] [µM] | MIC [10] [µM] | MIC [11] [µM] | MIC [12] [µM] | MIC [13] [µM] | MIC [14] [µM] | MIC [15] [µM] | MIC [16] [µM] | MIC [17] [µM] | MIC [18] [µM] | MIC [19] [µM] | MIC [20] [µM] | further results
CCCCc1nc(Cl)c(C2NC(=O)NC(CN3CCN(CC(=O)c4ccc(Cl)cc4)CC3)=C2C(=O)OCC)[nH]1 (stereo unspecified) | 444 (≈ 256 µg/mL) | 444 (≈ 256 µg/mL) | 444 (≈ 256 µg/mL) | 111 (≈ 64.1 µg/mL) | 56 (≈ 32.3 µg/mL) | 222 (≈ 128 µg/mL) | 222 (≈ 128 µg/mL) | 14 (≈ 8.09 µg/mL) | 222 (≈ 128 µg/mL) | 56 (≈ 32.3 µg/mL) | 28 (≈ 16.2 µg/mL) | 111 (≈ 64.1 µg/mL) | 56 (≈ 32.3 µg/mL) | 444 (≈ 256 µg/mL) | 56 (≈ 32.3 µg/mL) | 111 (≈ 64.1 µg/mL) | 222 (≈ 128 µg/mL) | 222 (≈ 128 µg/mL) | 111 (≈ 64.1 µg/mL) | 111 (≈ 64.1 µg/mL) | MIC [21]: 56 µM (≈ 32.3 µg/mL); MIC [22]: 28 µM (≈ 16.2 µg/mL); MIC [23]: 444 µM (≈ 256 µg/mL)
CCOC(=O)C1=C(CN2CCN(C(=O)/C(=N/OC)c3csc(N)n3)CC2)NC(=O)NC1c1ccc(N(C)C)cc1 (stereo unspecified) | 412 (≈ 235 µg/mL) | 28 (≈ 16 µg/mL) | 412 (≈ 235 µg/mL) | 225 (≈ 128 µg/mL) | 56 (≈ 32 µg/mL) | 28 (≈ 16 µg/mL) | 112 (≈ 63.9 µg/mL) | 52 (≈ 29.7 µg/mL) | 449 (≈ 256 µg/mL) | 225 (≈ 128 µg/mL) | 225 (≈ 128 µg/mL) | 225 (≈ 128 µg/mL) | 225 (≈ 128 µg/mL) | 412 (≈ 235 µg/mL) | 225 (≈ 128 µg/mL) | 225 (≈ 128 µg/mL) | 225 (≈ 128 µg/mL) | 112 (≈ 63.9 µg/mL) | 225 (≈ 128 µg/mL) | 56 (≈ 32 µg/mL) | MIC [21]: 225 µM (≈ 128 µg/mL); MIC [22]: 449 µM (≈ 256 µg/mL); MIC [23]: 112 µM (≈ 63.9 µg/mL)

From ChEMBL document CHEMBL5505979, “Novel aminothiazoximone-corbelled ethoxycarbonylpyrimidones with antibiofilm activity to conquer Gram-negative bacteria through potential multitargeting effects” (Eur J Med Chem, 2024)
